# Columns and labels:
# [1] = target: human Cereblon WT GST-tagged protein (Homo sapiens (Human), UniProt Q96SW2); experiment: CRBN-binding affinity, HTRF (CEREBLON BINDING kit, CISBIO); details: HTRF inhibitory activity
# Outline: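 Compounds were mixed with GST-tagged human Cereblon WT protein, then with Thalidomide-Red tracer and GST Eu antibody, and binding was read by HTRF. Inhibition rate was calculated from 620 nm emission relative to blank control wells (no protein) and solvent control wells.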
# [2] = tested on: CCRF-CEM (human acute lymphoblastic leukemia T-cells); experiment: Tumor cell proliferation inhibition, CCK-8; format: cell-based; details: CCRF-CEM cells, CCK-8, read-out: inhibitory activity (IC50, nM) CCRF-CEM
# Procedure: (§1) The tumor cells used herein were cultured in a cell culture medium listed in table 2 at 37° C. in an incubator with 5% CO2. Prior to experimentation, all cells used were correctly identified by STR profiling, and tested negative for mycoplasma through routine screenings.
# (§2) IC50 values of the compounds of the present disclosure (including the compounds in Table 1 and the Examples 1-305 compounds) were measured using the Meilun Cell Counting Kit-8 kit from Dalian Meilun Biotech Co., Ltd. Assay details are as follows: tumor cells were seeded in a 96-well plate at a density listed in Table 5. After 24 h, 100 μL of the inoculated cells were treated with 0.5 μL of the compounds of the present disclosure (including the compounds in Table 1 and the Examples 1-305 compounds) at 10 different successively decreasing concentrations (starting at the highest concentration of 10 μM; 5-fold serial dilutions). After the cells were treated with the compounds of the present disclosure for a period of time, the cell viability detection reagent was added to the culture medium for cell viability assessment according to the instructions provided with the CCK-8 kit. […] The growth inhibition of the compounds of the present disclosure on cells was plotted by Prism Graphpad software, and the IC50 values of the compounds of the present disclosure were calculated therefrom.
# GSPT1 = GSPT1 (Homo sapiens (Human), UniProt P15170+Q96SW2); experiment: Western blot, substrate protein expression in hPBMC: GSPT1; format: cell-based; details: hPBMC, compound 500 nM, 24 hours, Western blot
# Outline: (§3)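 hPBMC, 1×10^6 cells/mL, 24 h compound exposure; RIPA lysis, BCA protein assay, SDS-PAGE, NC membrane immunoblot. Densitometry vs internal control → % protein remaining; degradation % = 100% − remaining; DC50 = conc. at 50% of DMSO band signal.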
# [3] = tested on: MM.1S cells (human multiple myeloma cells); experiment: Tumor cell proliferation inhibition, CCK-8; format: cell-based; details: MM1.S, MM.1S cells, CCK-8, read-out: inhibitory activity (IC50, nM) MM.1S
# Procedure: as §1, §2
# [4] = tested on: CAL-62 (human thyroid carcinoma cells); experiment: Tumor cell proliferation inhibition, CCK-8; format: cell-based; details: CAL-62 cells, CCK-8, read-out: inhibitory activity (IC50, nM) CAL-62
# Procedure: as §1, §2
# IKZF1 = IKZF1 (Homo sapiens (Human), UniProt Q13422+Q96SW2); experiment: Western blot, substrate protein expression in hPBMC: IKZF1; format: cell-based; details: hPBMC, compound 500 nM, 24 hours, Western blot
# Outline: as §3
# IKZF3 = IKZF3 (Homo sapiens (Human), UniProt Q96SW2+Q9UKT9); experiment: Western blot, substrate protein expression in hPBMC: IKZF3; format: cell-based; details: hPBMC, compound 500 nM, 24 hours, Western blot
# Outline: as §3
# [5] = tested on: TMD8 cells (human diffuse large B-cell lymphoma cells); experiment: Tumor cell proliferation inhibition, CCK-8; format: cell-based; details: TMD8 cells, CCK-8, read-out: inhibitory activity (IC50, nM) TMD8
# Procedure: as §1, §2
# [6] = tested on: MDA-MB-231 cells (human breast adenocarcinoma cells); experiment: Tumor cell proliferation inhibition, CCK-8; format: cell-based; details: MDA-MB-231 cells, CCK-8, read-out: inhibitory activity (IC50, nM) MDA-MB-231
# Procedure: as §1, §2
# [7] = tested on: H146 cells (human small cell lung carcinoma cells); experiment: Tumor cell proliferation inhibition, CCK-8; format: cell-based; details: NCI-H146, H146 cells, CCK-8, read-out: inhibitory activity (IC50, nM) H146
# Procedure: as §1, §2
# human Cereblon WT GST-tagged protein, sequence (Q96SW2 whole entry): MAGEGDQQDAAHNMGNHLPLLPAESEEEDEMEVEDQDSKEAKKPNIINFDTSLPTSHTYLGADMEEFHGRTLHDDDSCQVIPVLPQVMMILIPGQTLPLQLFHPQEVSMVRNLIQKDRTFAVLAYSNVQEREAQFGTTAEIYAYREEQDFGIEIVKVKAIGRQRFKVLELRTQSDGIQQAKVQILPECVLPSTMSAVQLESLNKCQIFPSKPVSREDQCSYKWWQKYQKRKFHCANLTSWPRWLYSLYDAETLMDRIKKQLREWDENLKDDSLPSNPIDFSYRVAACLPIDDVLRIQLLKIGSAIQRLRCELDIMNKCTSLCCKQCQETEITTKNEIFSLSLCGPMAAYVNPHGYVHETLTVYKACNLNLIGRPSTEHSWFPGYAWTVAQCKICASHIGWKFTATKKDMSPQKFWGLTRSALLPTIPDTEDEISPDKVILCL
# IKZF1, sequence (Q13422 whole entry): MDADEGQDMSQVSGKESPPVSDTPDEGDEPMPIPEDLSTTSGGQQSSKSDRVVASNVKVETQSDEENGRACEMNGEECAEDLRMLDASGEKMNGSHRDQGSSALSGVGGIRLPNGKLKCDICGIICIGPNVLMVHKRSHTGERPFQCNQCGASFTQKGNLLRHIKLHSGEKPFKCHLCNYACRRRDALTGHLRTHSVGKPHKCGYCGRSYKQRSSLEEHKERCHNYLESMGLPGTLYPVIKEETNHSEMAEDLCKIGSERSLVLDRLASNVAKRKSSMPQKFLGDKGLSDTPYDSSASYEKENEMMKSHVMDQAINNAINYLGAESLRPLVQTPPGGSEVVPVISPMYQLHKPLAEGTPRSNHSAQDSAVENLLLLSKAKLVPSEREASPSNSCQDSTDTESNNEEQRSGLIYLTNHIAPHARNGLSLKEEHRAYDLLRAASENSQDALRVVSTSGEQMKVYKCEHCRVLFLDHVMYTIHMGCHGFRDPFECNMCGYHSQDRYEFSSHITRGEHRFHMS
# IKZF1, sequence (Q96SW2 whole entry): as the sequence (Q96SW2 whole entry) above
# IKZF1, sequence (Q16531 whole entry partner): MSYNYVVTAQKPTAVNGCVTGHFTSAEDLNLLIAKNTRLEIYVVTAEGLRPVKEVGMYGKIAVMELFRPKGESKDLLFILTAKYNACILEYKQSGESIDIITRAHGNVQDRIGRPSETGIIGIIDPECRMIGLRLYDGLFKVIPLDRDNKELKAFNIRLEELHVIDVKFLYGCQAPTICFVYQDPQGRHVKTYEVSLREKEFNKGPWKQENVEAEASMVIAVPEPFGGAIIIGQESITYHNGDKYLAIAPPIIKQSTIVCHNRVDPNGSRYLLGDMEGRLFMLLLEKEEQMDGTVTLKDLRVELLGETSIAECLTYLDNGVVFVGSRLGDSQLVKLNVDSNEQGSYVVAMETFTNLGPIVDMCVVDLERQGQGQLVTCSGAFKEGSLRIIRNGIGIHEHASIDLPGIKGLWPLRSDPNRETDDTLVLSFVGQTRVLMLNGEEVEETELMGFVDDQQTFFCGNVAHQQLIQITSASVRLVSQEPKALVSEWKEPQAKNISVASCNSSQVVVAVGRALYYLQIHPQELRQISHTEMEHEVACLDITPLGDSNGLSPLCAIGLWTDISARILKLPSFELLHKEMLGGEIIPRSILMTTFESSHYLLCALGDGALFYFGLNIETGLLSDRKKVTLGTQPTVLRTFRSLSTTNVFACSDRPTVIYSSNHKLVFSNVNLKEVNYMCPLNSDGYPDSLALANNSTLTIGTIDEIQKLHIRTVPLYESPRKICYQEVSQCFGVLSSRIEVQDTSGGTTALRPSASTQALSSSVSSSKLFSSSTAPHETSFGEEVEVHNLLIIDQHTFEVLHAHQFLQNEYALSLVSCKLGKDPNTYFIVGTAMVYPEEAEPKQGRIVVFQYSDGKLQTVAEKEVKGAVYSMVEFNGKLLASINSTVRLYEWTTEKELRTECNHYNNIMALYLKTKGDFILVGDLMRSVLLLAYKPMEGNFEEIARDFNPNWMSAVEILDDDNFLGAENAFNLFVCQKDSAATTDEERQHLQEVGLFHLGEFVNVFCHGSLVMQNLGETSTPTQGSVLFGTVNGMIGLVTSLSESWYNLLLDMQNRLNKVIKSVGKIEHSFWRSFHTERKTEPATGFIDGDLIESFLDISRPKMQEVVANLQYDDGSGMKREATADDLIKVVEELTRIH
# IKZF3, sequence (Q9UKT9 whole entry): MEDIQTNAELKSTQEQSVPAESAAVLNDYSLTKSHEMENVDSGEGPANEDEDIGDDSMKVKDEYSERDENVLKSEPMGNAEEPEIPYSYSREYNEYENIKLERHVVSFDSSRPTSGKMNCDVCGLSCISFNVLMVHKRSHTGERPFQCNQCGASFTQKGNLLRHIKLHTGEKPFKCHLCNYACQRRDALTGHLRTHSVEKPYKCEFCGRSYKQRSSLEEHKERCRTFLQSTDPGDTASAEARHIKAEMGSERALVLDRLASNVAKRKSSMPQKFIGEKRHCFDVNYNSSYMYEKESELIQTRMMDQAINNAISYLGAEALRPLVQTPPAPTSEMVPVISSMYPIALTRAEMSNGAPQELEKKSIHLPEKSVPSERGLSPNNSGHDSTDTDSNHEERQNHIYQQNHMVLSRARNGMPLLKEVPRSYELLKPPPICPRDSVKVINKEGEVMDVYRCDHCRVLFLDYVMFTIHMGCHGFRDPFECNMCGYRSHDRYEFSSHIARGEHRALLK
# IKZF3, sequence (Q96SW2 whole entry): as the sequence (Q96SW2 whole entry) above
# IKZF3, sequence (Q16531 whole entry partner): as the sequence (Q16531 whole entry partner) above
# GSPT1, sequence (P15170 whole entry): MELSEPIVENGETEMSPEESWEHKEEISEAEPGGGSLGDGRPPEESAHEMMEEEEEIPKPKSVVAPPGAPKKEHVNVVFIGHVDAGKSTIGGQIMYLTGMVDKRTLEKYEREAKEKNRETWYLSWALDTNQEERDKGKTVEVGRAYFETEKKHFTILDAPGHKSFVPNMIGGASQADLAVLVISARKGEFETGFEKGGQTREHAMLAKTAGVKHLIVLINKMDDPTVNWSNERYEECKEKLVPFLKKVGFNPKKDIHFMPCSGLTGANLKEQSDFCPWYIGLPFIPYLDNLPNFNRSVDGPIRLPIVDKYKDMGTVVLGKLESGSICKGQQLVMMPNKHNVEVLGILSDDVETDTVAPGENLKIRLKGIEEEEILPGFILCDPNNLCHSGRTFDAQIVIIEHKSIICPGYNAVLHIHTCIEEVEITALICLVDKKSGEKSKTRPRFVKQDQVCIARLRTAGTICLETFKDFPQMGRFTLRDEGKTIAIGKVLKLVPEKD
# GSPT1, sequence (Q96SW2 whole entry): as the sequence (Q96SW2 whole entry) above
# GSPT1, sequence (Q16531 whole entry partner): as the sequence (Q16531 whole entry partner) above
smiles,measurement,setting,value
"O=C1CCC(N2Cc3cc(CN4C5CCC4CN(C(c4ccccc4)c4ccccc4)C5)cc(F)c3C2=O)C(=O)N1 (stereo not shown) [GT-03840, 3-(5-((3-benzhydryl-3,8-diazabicyclo[3.2.1]octan-8-yl)methyl)-7-fluoro-1-oxoisoindolin-2-yl)piperidine-2,6-dione]",IC50,[1],1000 to 1900 nM
same,IC50,[2],10 to 50 nM
"O=C1CCC(N2Cc3c(ccc(CN4CCN(C(c5ccccc5)c5ccncc5)CC4)c3F)C2=O)C(=O)N1 (stereo not shown) [GT-04247, 3-(4-fluoro-1-oxo-5-((4-(phenyl(pyridin-4-yl)methyl)piperazin-1-yl)methyl)isoindolin-2-yl)piperidine-2,6-dione]",substrate protein remaining % GSPT1,GSPT1,A (A represents 0% ≤ substrate protein remaining % ≤ 50%)
same,IC50,[1],< 500 nM
same,IC50,[3],100 to 500 nM
same,IC50,[4],50 to 100 nM
same,IC50,[2],50 to 100 nM
same,substrate protein remaining % IKZF1,IKZF1,A (A represents 0% ≤ substrate protein remaining % ≤ 50%)
same,substrate protein remaining % IKZF3,IKZF3,A (A represents 0% ≤ substrate protein remaining % ≤ 50%)
"O=C1CCC(N2Cc3cc(CN4CCN(C(c5ccccc5)c5cccnc5)CC4)ccc3C2=O)C(=O)N1 (stereo not shown) [GT-04249, 3-(1-oxo-5-((4-(phenyl(pyridin-3-yl)methyl)piperazin-1-yl)methyl)isoindolin-2-yl)piperidine-2,6-dione]",substrate protein remaining % GSPT1,GSPT1,A (A represents 0% ≤ substrate protein remaining % ≤ 50%)
same,IC50,[1],< 500 nM
same,IC50,[3],500 to 1000 nM
same,IC50,[5],100 to 500 nM
same,IC50,[4],10 to 50 nM
same,IC50,[2],10 to 50 nM
same,substrate protein remaining % IKZF1,IKZF1,A (A represents 0% ≤ substrate protein remaining % ≤ 50%)
same,substrate protein remaining % IKZF3,IKZF3,A (A represents 0% ≤ substrate protein remaining % ≤ 50%)
"O=C1CCC(N2Cc3c(ccc(CN4CCN(C(c5ccccc5)c5cccnc5)CC4)c3F)C2=O)C(=O)N1 (stereo not shown) [GT-04250, 3-(4-fluoro-1-oxo-5-((4-(phenyl(pyridin-3-yl)methyl)piperazin-1-yl)methyl)isoindolin-2-yl)piperidine-2,6-dione]",substrate protein remaining % GSPT1,GSPT1,A (A represents 0% ≤ substrate protein remaining % ≤ 50%)
same,IC50,[1],< 500 nM
same,IC50,[3],100 to 500 nM
same,IC50,[4],50 to 100 nM
same,IC50,[2],50 to 100 nM
same,substrate protein remaining % IKZF1,IKZF1,A (A represents 0% ≤ substrate protein remaining % ≤ 50%)
same,substrate protein remaining % IKZF3,IKZF3,A (A represents 0% ≤ substrate protein remaining % ≤ 50%)
"O=C1CCC(N2Cc3cc(CN4CCN(C5c6ccccc6-c6ccccc65)CC4)ccc3C2=O)C(=O)N1 (stereo not shown) [GT-05907, 3-(5-((4-(9H-fluoren-9-yl)piperazin-1-yl)methyl)-1-oxoisoindolin-2-yl)piperidine-2,6-dione]",substrate protein remaining % GSPT1,GSPT1,A (A represents 0% ≤ substrate protein remaining % ≤ 50%)
same,IC50,[1],< 500 nM
same,IC50,[6],10 to 50 nM
same,IC50,[3],1 to 10 nM
same,IC50,[5],10 to 50 nM
same,IC50,[7],10 to 50 nM
same,substrate protein remaining % IKZF1,IKZF1,A (A represents 0% ≤ substrate protein remaining % ≤ 50%)
same,substrate protein remaining % IKZF3,IKZF3,A (A represents 0% ≤ substrate protein remaining % ≤ 50%)
"O=C1CCC(N2Cc3cc(CN4CCN(C(c5ccccc5F)c5ccccc5F)CC4)ccc3C2=O)C(=O)N1 (stereo not shown) [GT-06084, 3-(5-((4-(bis(2-fluorophenyl)methyl)piperazin-1-yl)methyl)-1-oxoisoindolin-2-yl)piperidine-2,6-dione]",substrate protein remaining % GSPT1,GSPT1,A (A represents 0% ≤ substrate protein remaining % ≤ 50%)
same,IC50,[1],< 500 nM
same,IC50,[6],10 to 50 nM
same,IC50,[3],1 to 10 nM
same,IC50,[5],10 to 50 nM
same,IC50,[7],10 to 50 nM
same,substrate protein remaining % IKZF1,IKZF1,A (A represents 0% ≤ substrate protein remaining % ≤ 50%)
same,substrate protein remaining % IKZF3,IKZF3,A (A represents 0% ≤ substrate protein remaining % ≤ 50%)
"O=C1CCC(N2Cc3c(ccc(CN4CCN(C(c5ccccc5F)c5ccccc5F)CC4)c3F)C2=O)C(=O)N1 (stereo not shown) [GT-06085, 3-(5-((4-(bis(2-fluorophenyl)methyl)piperazin-1-yl)methyl)-4-fluoro-1-oxoisoindolin-2-yl)piperidine-2,6-dione]",substrate protein remaining % GSPT1,GSPT1,A (A represents 0% ≤ substrate protein remaining % ≤ 50%)
same,IC50,[1],500 to 1000 nM
same,IC50,[6],10 to 50 nM
same,IC50,[3],1 to 10 nM
same,IC50,[5],10 to 50 nM
same,IC50,[7],10 to 50 nM
same,substrate protein remaining % IKZF1,IKZF1,A (A represents 0% ≤ substrate protein remaining % ≤ 50%)
same,substrate protein remaining % IKZF3,IKZF3,A (A represents 0% ≤ substrate protein remaining % ≤ 50%)
"O=C1CCC(N2Cc3cc(CN4CCN(C(c5ccccc5F)c5ccccc5F)CC4)c(F)cc3C2=O)C(=O)N1 (stereo not shown) [GT-06086, 3-(5-((4-(bis(2-fluorophenyl)methyl)piperazin-1-yl)methyl)-6-fluoro-1-oxoisoindolin-2-yl)piperidine-2,6-dione]",substrate protein remaining % GSPT1,GSPT1,A (A represents 0% ≤ substrate protein remaining % ≤ 50%)
same,IC50,[1],500 to 1000 nM
same,IC50,[6],10 to 50 nM
same,IC50,[3],1 to 10 nM
same,IC50,[5],10 to 50 nM
same,IC50,[7],10 to 50 nM
same,substrate protein remaining % IKZF1,IKZF1,A (A represents 0% ≤ substrate protein remaining % ≤ 50%)
same,substrate protein remaining % IKZF3,IKZF3,A (A represents 0% ≤ substrate protein remaining % ≤ 50%)
"O=C1CCC(N2Cc3cc(CN4CCN(C(c5ccccc5F)c5ccccc5F)CC4)cc(F)c3C2=O)C(=O)N1 (stereo not shown) [GT-06087, 3-(5-((4-(bis(2-fluorophenyl)methyl)piperazin-1-yl)methyl)-7-fluoro-1-oxoisoindolin-2-yl)piperidine-2,6-dione]",substrate protein remaining % GSPT1,GSPT1,A (A represents 0% ≤ substrate protein remaining % ≤ 50%)
same,IC50,[1],< 500 nM
same,IC50,[6],100 to 500 nM
same,IC50,[3],10 to 50 nM
same,IC50,[5],100 to 500 nM
same,IC50,[7],50 to 100 nM
same,substrate protein remaining % IKZF1,IKZF1,B (B represents substrate protein remaining % > 50%)
same,substrate protein remaining % IKZF3,IKZF3,B (B represents substrate protein remaining % > 50%)
"O=C1CCC(N2Cc3cc(C(=O)N4CCN(C(c5cccc(F)c5)c5cccc(F)c5)CC4)ccc3C2=O)C(=O)N1 (stereo not shown) [GT-06146, 3-(5-(4-(bis(3-fluorophenyl)methyl)piperazine-1-carbonyl)-1-oxoisoindolin-2-yl)piperidine-2,6-dione]",substrate protein remaining % GSPT1,GSPT1,A (A represents 0% ≤ substrate protein remaining % ≤ 50%)
same,IC50,[1],< 500 nM
same,IC50,[6],100 to 500 nM
same,IC50,[3],10 to 50 nM
same,IC50,[5],500 to 1000 nM
same,IC50,[7],100 to 500 nM
same,substrate protein remaining % IKZF1,IKZF1,A (A represents 0% ≤ substrate protein remaining % ≤ 50%)
same,substrate protein remaining % IKZF3,IKZF3,A (A represents 0% ≤ substrate protein remaining % ≤ 50%)
"O=C1CCC(N2Cc3cc(CN4CCN(C(c5cc(F)cc(F)c5)c5cc(F)cc(F)c5)CC4)ccc3C2=O)C(=O)N1 (stereo not shown) [GT-06387, 3-(5-((4-(bis(3,5-difluorophenyl)methyl)piperazin-1-yl)methyl)-1-oxoisoindolin-2-yl)piperidine-2,6-dione]",substrate protein remaining % GSPT1,GSPT1,A (A represents 0% ≤ substrate protein remaining % ≤ 50%)
same,IC50,[1],1000 to 1900 nM
same,IC50,[6],1 to 10 nM
same,IC50,[3],< 1 nM
same,IC50,[5],1 to 10 nM
same,IC50,[7],1 to 10 nM
same,substrate protein remaining % IKZF1,IKZF1,B (B represents substrate protein remaining % > 50%)
same,substrate protein remaining % IKZF3,IKZF3,A (A represents 0% ≤ substrate protein remaining % ≤ 50%)
"O=C1CCC(N2Cc3cc(C(=O)N4CCN(C(c5cc(F)cc(F)c5)c5cc(F)cc(F)c5)CC4)ccc3C2=O)C(=O)N1 (stereo not shown) [GT-06597, 3-(5-(4-(bis(3,5-difluorophenyl)methyl)piperazine-1-carbonyl)-1-oxoisoindolin-2-yl)piperidine-2,6-dione]",substrate protein remaining % GSPT1,GSPT1,A (A represents 0% ≤ substrate protein remaining % ≤ 50%)
same,IC50,[1],500 to 1000 nM
same,IC50,[6],50 to 100 nM
same,IC50,[3],10 to 50 nM
same,IC50,[5],100 to 500 nM
same,IC50,[7],10 to 50 nM
same,substrate protein remaining % IKZF1,IKZF1,A (A represents 0% ≤ substrate protein remaining % ≤ 50%)
same,substrate protein remaining % IKZF3,IKZF3,A (A represents 0% ≤ substrate protein remaining % ≤ 50%)
